US10221163B2 (priority 2015, dated 2019)
Like-named read-outs stand apart in the source and are kept apart here.

Legend:
[1] = target: IMP-1 (Serratia marcescens, UniProt P52699); test: biochemical; type: biochemical; details: CCF2-FA substrate, 2 pM enzyme, 2 hours at 25° C.
Method in brief: (§1)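 IC50 values derive from 4-parameter fits of percent inhibition against inhibitor concentration on semi-log axes. Activity was monitored by fluorescence with the CCF2-FA substrate after a 2-hour, 25° C incubation of compound, enzyme and substrate.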

[2] = target: NDM-1 (Klebsiella pneumoniae, UniProt C7C422); test: biochemical; type: biochemical; details: fluorescence assay, CCF2-FA substrate, 1 pM enzyme, 2 hours at 25° C.; read-out: NDM-1 IC50
Method in brief: as §1

[3] = target: VIM-1 (Pseudomonas aeruginosa (strain ATCC 15692 / DSM 22644 / CIP 104116 / JCM 14847 / LMG 12228 / 1C / PRS 101 / PAO1), UniProt A0A0F7KYQ8); test: biochemical; details: CCF2-FA substrate, 30 pM enzyme, 2 hours at 25° C.
Method in brief: as §1

[4] = test system: Escherichia coli expressing NDM-1 (CLB30005, CLB30016); type: cell-based; details: with imipenem 1 μg/ml; for Escherichia coli expressing NDM-1 (CLB30016) MITC95: 95% inhibition of bacterial growth; for Escherichia coli MITC95: NDM-1 strain, 95% inhibition of growth
Method in brief: (§2)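 Clinical strains grown overnight on blood agar at 35°C, colonies suspended in saline, diluted 1:100 into 1.1×CAMHB. Test compound titrated with imipenem at 1 μg/ml; incubated 22–24 h at 35°C, growth read by absorbance.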

[5] = test system: Klebsiella pneumoniae expressing VIM-1 (IHMA599644); type: cell-based; details: for Klebsiella pneumoniae expressing VIM-1 (IHMA599644) MITC95: with imipenem 1 μg/ml, 95% inhibition of bacterial growth; for Klebsiella pneumoniae MITC95: VIM-1 strain IHMA599644, with imipenem 1 μg/ml, 95% inhibition of growth
Method in brief: as §2

[6] = test system: Serratia marcescens expressing IMP-1 (CL5741); type: cell-based; details: for Serratia marcescens expressing IMP-1 (CL5741) MITC95: with imipenem 1 μg/ml, 95% inhibition of bacterial growth; for Serratia marcescens MITC95: IMP-1 strain CL5741, with imipenem 1 μg/ml, 95% inhibition of growth
Method in brief: as §2

[7] = test system: Pseudomonas aeruginosa efflux+ (MB9798), IMP-1; type: cell-based; set-up: Concentration of metallo-β-lactamase inhibitor which restores susceptibility of efflux + (MB9798) strain to imipenem: unit not given here; details: C, D serine β-lactamase inhibitor closely related to relebactam; for P. aeruginosa expressing IMP-1, efflux + (MB9798) MITC95: concentration restoring susceptibility to imipenem at 2 μg/mL in the presence of a class A; for Concentration of metallo-β-lactamase inhibitor which restores susceptibility of efflux + (MB9798) strain to imipenem: imipenem at 2 μg/mL, in the presence of a class A
Method in brief: (§3)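 P. aeruginosa PAO1-derived IMP-1 strains, efflux+ MB9798 and efflux− MB9799, tested by standard microbroth MIC with imipenem and/or ceftazidime fixed, usually at CLSI breakpoint, plus fixed class A/C β-lactamase inhibitor against AmpC. Inhibitor titrated; concentration restoring susceptibility recorded; MB9798/MB9799 fold difference indicates efflux.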

[8] = test system: Pseudomonas aeruginosa efflux− (MB9799), IMP-1; type: cell-based; details: C, D serine β-lactamase inhibitor closely related to relebactam; for P. aeruginosa expressing IMP-1, efflux − (MB9799) MITC95: concentration restoring susceptibility to imipenem at 2 μg/mL in the presence of a class A; for Concentration of metallo-β-lactamase inhibitor which restores susceptibility of efflux − (MB9799) strain to imipenem: imipenem at 2 μg/mL, in the presence of a class A
Method in brief: as §3

[9] = test system: Pseudomonas aeruginosa MB9798 vs MB9799
Method in brief: as §3

[10] = fluorescence assay, read-out: IMP-1 IC50
[11] = fluorescence assay, read-out: VIM-1 IC50
[12] = ratio MITC95 PA_9798/MITC95 PA_9799
[13] = fold difference between efflux+ (MB9798) and efflux− (MB9799) strains, imipenem at 2 μg/mL

Sequence of IMP-1 (P52699 whole entry, looked up, species assumed): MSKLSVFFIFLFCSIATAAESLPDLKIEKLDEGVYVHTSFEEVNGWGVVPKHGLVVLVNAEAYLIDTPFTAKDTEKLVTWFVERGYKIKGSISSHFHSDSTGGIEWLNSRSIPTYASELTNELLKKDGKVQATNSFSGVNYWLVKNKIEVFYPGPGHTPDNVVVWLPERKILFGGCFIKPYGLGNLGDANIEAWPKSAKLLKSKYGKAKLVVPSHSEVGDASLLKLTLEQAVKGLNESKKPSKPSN
Sequence of NDM-1 (C7C422 whole entry, looked up, species assumed): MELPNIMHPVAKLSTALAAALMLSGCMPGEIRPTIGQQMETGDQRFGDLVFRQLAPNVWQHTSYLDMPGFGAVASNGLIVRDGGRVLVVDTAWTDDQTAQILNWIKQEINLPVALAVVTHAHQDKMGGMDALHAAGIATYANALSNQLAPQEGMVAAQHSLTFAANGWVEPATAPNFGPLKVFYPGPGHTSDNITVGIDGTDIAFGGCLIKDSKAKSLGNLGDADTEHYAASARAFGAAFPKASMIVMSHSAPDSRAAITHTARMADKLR

Row | SMILES | IC50 [1, 10] | IC50 [2] | IC50 [3, 11] | Escherichia coli expressing NDM-1 (CLB30016) MITC95 [4] | Klebsiella pneumoniae expressing VIM-1 (IHMA599644) MITC95 [5] | Serratia marcescens expressing IMP-1 (CL5741) MITC95 [6] | P. aeruginosa expressing IMP-1, efflux + (MB9798) MITC95 [7] | P. aeruginosa expressing IMP-1, efflux − (MB9799) MITC95 [8] | Efflux ratio [9, 12] | IC50 ([1]; IMP-1 IC50, fluorescence assay) | Escherichia coli MITC95 [4] | Klebsiella pneumoniae MITC95 [5] | Serratia marcescens MITC95 [6] | Concentration of metallo-β-lactamase inhibitor which restores susceptibility of efflux + (MB9798) strain to imipenem [7] | Concentration of metallo-β-lactamase inhibitor which restores susceptibility of efflux − (MB9799) strain to imipenem [8] | Efflux ratio [9, 13] | IC50 ([3]; VIM-1 IC50, fluorescence assay)
1 | C[C@H]1NC(=O)O[C@H]1c1ccc(-c2ccc(S(=O)(=O)N[C@@H]3CCNC3)c(S(N)(=O)=O)c2-c2nnn[nH]2)cc1 [Example 141, 4′-((4R,5S)-4-methyl-2-oxooxazolidin-5-yl)-N4-((R)-pyrrolidin-3-yl)-2-(1H-tetrazol-5-yl)-[1,1′-biphenyl]-3,4-disulfonamide] | 0.0408 nM | 0.0186 nM | 0.0623 nM | 3.125 µM | 6.25 µM | 6.25 µM | 1.563 µM | 1.563 µM | 1.00 |  |  |  |  |  |  |  | 
2 | C[N+](C)(C)CCNS(=O)(=O)c1ccc(-c2cccc3sc(N)nc23)c(-c2nnn[nH]2)c1S(N)(=O)=O.O=C([O-])C(F)(F)F [Example 391, 2-({[4-(2-amino-1,3-benzothiazol-4-yl)-2-sulfamoyl-3-(1H-tetrazol-5-yl)phenyl]sulfonyl}amino)-N,N,N-trimethylethanaminium trifluoroacetate] |  | 0.028 nM | 0.0965 nM |  |  |  |  |  |  | 0.209 nM | 3.125 µM | 6.25 µM | 3.125 µM | 1.563 | 1.563 | 1.00 | 
3 | CNS(=O)(=O)c1ccc(-c2cccc3cn[nH]c23)c(-c2nn[nH]n2)c1S(N)(=O)=O [Example 7, 4-(1H-indazol-7-yl)-N1-methyl-3-(2H-tetrazol-5-yl)benzene-1,2-disulfonamide] |  | 0.101 nM | 0.108 nM | 6.25 µM | 6.25 µM | 3.125 µM | 25 µM | 1.563 µM | 15.99 | 0.214 nM |  |  |  |  |  |  | 
4 | NS(=O)(=O)c1c(S(=O)(=O)N[C@@H]2CCNC2)ccc(-c2cccnc2N2CCNCC2)c1-c1nn[nH]n1 [Example 220, (R)-4-(2-(piperazin-1-yl)pyridin-3-yl)-N1-(pyrrolidin-3-yl)-3-(2H-tetrazol-5-yl)benzene-1,2-disulfonamide] | 35.8 nM | 1.57 nM | 0.442 nM | 1.563 µM | 1.563 µM | 3.125 µM | 6.25 µM | 1.563 µM | 4.00 |  |  |  |  |  |  |  | 
5 | N[C@@H]1C=C(c2ccc(S(=O)(=O)N[C@@H]3CCNC3)c(S(N)(=O)=O)c2-c2nn[nH]n2)CCC1 [Example 340, (S)-5′-amino-N4-((R)-pyrrolidin-3-yl)-2-(2H-tetrazol-5-yl)-2′,3′,4′,5′-tetrahydro-[1,1′-biphenyl]-3,4-disulfonamide] | 46.7 nM | 6.29 nM |  |  |  |  | 6.25 µM | 1.563 µM | 4.00 |  | 0.3906 µM | 0.7813 µM | 1.563 µM |  |  |  | 2.89 nM
6 | Nc1ccc(-c2ccc(S(=O)(=O)NC[C@@H]3CNCCN3)c(S(N)(=O)=O)c2-c2nn[nH]n2)cn1 [Example 312, (S)-4-(6-aminopyridin-3-yl)-N1-(piperazin-2-ylmethyl)-3-(2H-tetrazol-5-yl)benzene-1,2-disulfonamide] | 0.586 nM | 0.216 nM |  |  |  |  | 1.563 µM | 1.563 µM | 1.00 |  | 0.3906 µM | 3.125 µM | 0.7813 µM |  |  |  | 0.28 nM
7 | NS(=O)(=O)c1c(S(=O)(=O)N[C@H]2CCNC2)ccc(-c2cccc3[nH]cnc23)c1-c1nn[nH]n1 [Example 197] | 0.395 nM | 0.0764 nM | 0.145 nM | 2.344 µM | 3.125 µM | 1.172 µM | 0.7813 µM | 0.7813 µM | 1.00 |  |  |  |  |  |  |  | 
8 | NCC(CN)NS(=O)(=O)c1ccc(-c2ccc3nccn3c2)c(-c2nn[nH]n2)c1S(N)(=O)=O [Example 406] | 0.592 nM | 0.164 nM | 0.172 nM |  |  |  |  |  |  |  | 0.3906 µM | 3.125 µM | 0.7813 µM | 1.563 | 1.563 | 1.00 | 
9 | Nc1nc2c(-c3ccc(S(=O)(=O)N4CCC[C@H](N)C4)c(S(N)(=O)=O)c3-c3nnn[nH]3)cccc2s1 [Example 66, 3-(2-amino-1,3-benzothiazol-4-yl)-6-{[(3S)-3-aminopiperidin-1-yl]sulfonyl}-2-(1H-tetrazol-5-yl)benzenesulfonamide] | 2.26 nM | 1.09 nM | 4.01 nM | 3.125 µM | 6.25 µM | 3.125 µM | 3.125 µM | 1.563 µM | 2.00 |  |  |  |  |  |  |  | 
10 | NCC(CN)NS(=O)(=O)c1ccc(-c2cccnc2N)c(-c2nn[nH]n2)c1S(N)(=O)=O [Example 210, 4-(2-aminopyridin-3-yl)-N1-(1,3-diaminopropan-2-yl)-3-(2H-tetrazol-5-yl)benzene-1,2-disulfonamide] | 1.5 nM | 0.126 nM | 0.197 nM | 0.1953 µM | 3.125 µM | 0.7813 µM | 3.125 µM | 1.563 µM | 2.00 |  |  |  |  |  |  |  | 
